The values below are quoted from earlier work in patent publication US20060223182A1, “Device for producing autologous VEGF” (priority 2005, published 2006).

Like-named read-outs stand apart in the source and are kept apart here.

Series [1] concerns human keratinocytes. The conditions noted are these: baseline about 200 pg/ml.
For another series, the system named is human macrophages. The conditions noted are these: 0.5 mM H2O2 for about 30 minutes.
The test system of series [2] is human keratinocytes. Conditions: human keratinocytes cultured in H2O2, with cycloheximide.

With `OO` [H2O2, hydrogen peroxide], the VEGF production level entry in the series with human keratinocytes [1] (H2O2 250 uM) is “about 600 pg/ml”. Moreover, the “VEGF produced per cell” value in the series on human macrophages is on record as “about 2.5 fg VEGF/cell”.

As to “TGF-β: growth factor, obtainable from platelet releasate”, in the series on VSMCs (0.3 ng/ml TGF-β, 4 hours, 21% O2, printed as 'similar increase' to 2.5% O2 alone), the “increase in steady state levels of VEGF mRNA” value is 1.5-2 fold. For the same molecule, the “increase in the level of VEGF mRNA” value in the series with VSMCs (combined treatment of TGF-β and incubation at 2.5% O2) is on record as about 7 fold.

Regarding `C[C@@H]1C[C@@H]([C@H](O)CC2CC(=O)NC(=O)C2)C(=O)[C@@H](C)C1` [cycloheximide], the “level of mRNA produced by the superinduction relative to mere addition of H2O2” value in the series with human keratinocytes [2] is “at least 10 fold”.

Take TNF-α: the VEGF production level result in the series with human keratinocytes [1] (TNF-α 25 ng/ml) was “about 600 pg/ml”.
